According to PubChem BioAssay AID977605 (Broad Institute, 2014):
Activity calls are given as the source filed them.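 The calls were made as follows: active = fitted curve reaches 40% activation below the top valid tested dose, in every test run; inconclusive = test runs disagree on the call; inactive = the rest, including effects opposite to the expected direction.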

Assay: endothelial E-selectin upregulation by compounds – imaging, HUVEC, cherry-picked samples, dose response (AID 977605);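 also: signal is the share of imaged cells scored positive for E-selectin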
Conditions: HUVEC E-selectin immunostaining, percent of TNF-alpha response over vehicle

Structure (SMILES)	activation (at 19.5 µM (top of the series))	also measured
C[C@@H]1CCCCO[C@@H](CN(C)C(=O)Cc2ccccc2)[C@@H](C)CN([C@H](C)CO)C(=O)c2cc(NS(=O)(=O)c3cccs3)ccc2O1	0.129% (inactive)	–
Cc1noc(C)c1S(=O)(=O)N(C)C[C@@H]1Oc2ccc(NC(=O)Nc3ccc(F)cc3)cc2CC(=O)N([C@H](C)CO)C[C@H]1C	-0.155% (inactive)	–
C[C@@H]1CN([C@@H](C)CO)C(=O)Cc2cc(NS(=O)(=O)c3cccs3)ccc2O[C@H]1CN(C)C(=O)Nc1ccc(F)cc1	-0.169% (inactive)	–
O=C(CN(CC1CCCO1)C(=O)CNS(=O)(=O)c1ccccc1)NCc1ccc(F)cc1 (stereo unspecified)	1.46% (inactive)	–
C[C@@H]1CN([C@@H](C)CO)C(=O)Cc2cc(NC(=O)Nc3ccc(F)cc3)ccc2O[C@@H]1CN(C)Cc1ccc(C(=O)O)cc1	-0.134% (inactive)	–
C[C@@H]1CN([C@@H](C)CO)C(=O)Cc2cc(NC(=O)Cn3cnnn3)ccc2O[C@H]1CN(C)C(=O)Nc1ccc(F)cc1	0.031% (inactive)	–
C[C@@H]1CN([C@@H](C)CO)C(=O)Cc2cc(NS(C)(=O)=O)ccc2O[C@@H]1CN(C)S(=O)(=O)c1cn(C)cn1	-0.013% (inactive)	–
COc1cccc(C(=O)Nc2cc(C)c3c(=O)oc4ccccc4c3n2)c1	2.1% (inactive)	–
O=C(NC1CCCC1)C(c1ccc(F)cc1)N(C(=O)c1csnn1)c1ccccc1 (stereo unspecified)	0.654% (inactive)	–
C[C@H]1CN([C@@H](C)CO)C(=O)c2cc(N(C)C)ccc2O[C@H]1CN(C)S(=O)(=O)c1cn(C)cn1	0.81% (inactive)	–
C[C@H]1CN([C@@H](C)CO)C(=O)c2cccc(NC(=O)C3CC3)c2O[C@H]1CN(C)Cc1ccccc1	1.36% (inactive)	–
Cc1cc(C)nc(NC(N)=NC(C)c2ccccc2)n1 (stereo unspecified)	-0.07% (inactive)	–
C[C@H](CO)N1C[C@H](C)[C@H](CN(C)Cc2ccc(Cl)c(Cl)c2)Oc2c(NC(=O)CCCCCC(=O)Nc3ccccc3N)cccc2C1=O	0.173% (inactive)	–
COc1ccc(NC(=O)N(C)C[C@H]2Oc3ccc(NC(=O)CCCCCC(=O)Nc4ccccc4N)cc3CC(=O)N([C@@H](C)CO)C[C@H]2C)cc1	–	activation (at 18 µM (top of the series)): 0.745% (inactive)
C[C@@H]1CN([C@H](C)CO)C(=O)Cc2cc(NC(=O)Nc3ccc(C(F)(F)F)cc3)ccc2O[C@H]1CN(C)Cc1ccc(Oc2ccccc2)cc1	–	activation (at 21 µM (top of the series)): -0.245% (inactive)
CCN(CC)c1ccc(S(=O)(=O)N2CCOCC2)cc1NC(=O)CN1C(=O)NC2(CCCC2)C1=O	4.54% (inactive)	–
Cc1ccc(-n2ncc3c(=O)[nH]c(SC(C)C)nc32)cc1	0.023% (inactive)	–
C[C@@H]1CN([C@H](C)CO)C(=O)Cc2cc(NS(=O)(=O)c3cccs3)ccc2O[C@@H]1CN(C)Cc1ccc(C(=O)Nc2ccccc2N)cc1	1.45% (inactive)	–
COc1cccc(NC(=O)c2ccc(OC(F)(F)F)cc2)c1	0.305% (inactive)	–
COc1ccc(N2CCN(C(=O)c3cccc(NC4=NC5CS(=O)(=O)CC5S4)c3)CC2)cc1 (stereo unspecified)	-0.136% (inactive)	–
C[C@@H]1CN([C@@H](C)CO)C(=O)Cc2cc(NS(C)(=O)=O)ccc2O[C@H]1CN(C)Cc1ccncc1	-0.007% (inactive)	–
C[C@@H]1CN([C@@H](C)CO)C(=O)c2cccc(NC(=O)C3CC3)c2O[C@H]1CN(C)Cc1ccccc1	0.172% (inactive)	–
C[C@H](CO)N1C[C@H](C)[C@H](CN(C)C(=O)Nc2ccc3c(c2)OCO3)Oc2c(NS(=O)(=O)c3ccc(Cl)cc3)cccc2C1=O	–	activation (at 21 µM (top of the series)): -0.135% (inactive)
C[C@@H]1CN([C@@H](C)CO)C(=O)c2cc(NC(=O)Cc3cn(C)c4ccccc34)ccc2O[C@H]1CN(C)Cc1ccc2c(c1)OCO2	-0.066% (inactive)	–
COCC(=O)N(C)C[C@@H]1Oc2cc(-c3ccc(F)cc3)ccc2S(=O)(=O)N([C@H](C)CO)C[C@H]1C	-0.159% (inactive)	–
COc1ccc(S(=O)(=O)Nc2cccc3c2O[C@H](CN(C)C(=O)Nc2c(C)noc2C)[C@@H](C)CN([C@@H](C)CO)C3=O)cc1	–	activation (at 21 µM (top of the series)): -0.092% (inactive)

Structure (SMILES)	activation (at 19.5 µM (top of the series))	also measured
Cc1ccc(CSc2nc3[nH]ncc3c(=O)[nH]2)cc1	24.6% (inactive)	–
CC(C)NC(=O)N(C)C[C@@H]1Oc2ccc(NS(=O)(=O)c3cccs3)cc2CC(=O)N([C@H](C)CO)C[C@@H]1C	1.19% (inactive)	–
Cc1noc(C)c1NC(=O)Nc1ccc2c(c1)CC(=O)N([C@H](C)CO)C[C@@H](C)[C@H](CN(C)C(=O)Nc1ccc(F)cc1)O2	-0.18% (inactive)	–
CC(=O)NC(Cc1c[nH]c2ccccc12)C(=O)NCCc1ccccn1 (stereo unspecified)	0.144% (inactive)	–
C[C@H]1CN([C@@H](C)CO)C(=O)c2cc(NC(=O)NC3CCCCC3)ccc2O[C@@H]1CN(C)S(=O)(=O)c1ccc(Cl)cc1	2.58% (inactive)	–
CCCN1[C@H](CO)[C@H](c2ccc(C#Cc3ccccc3)cc2)[C@@H]1CNC1CCCC1	4.52% (inactive)	–
COc1ccccc1NS(=O)(=O)c1c(C)[nH]c(C)c1C(=O)N1CCCC1	13.9% (inactive)	–
COc1ccc(C#Cc2ccc3c(c2)O[C@@H](CN(C)C(=O)Nc2cccc(OC)c2)[C@H](C)CN([C@@H](C)CO)S3(=O)=O)cc1	4.46% (inactive)	–
COc1ccc(NC(=O)N(C)C[C@H]2Oc3ccc(NC(=O)c4ccncc4)cc3CC(=O)N([C@H](C)CO)C[C@@H]2C)cc1	-0.048% (inactive)	–
C[C@H](CO)N1C[C@H](C)[C@H](CN(C)C(=O)NC2CCCCC2)Oc2ccc(NS(=O)(=O)c3ccccc3)cc2C1=O	-0.156% (inactive)	–
CCOc1cc(N2CCOCC2)c(OCC)cc1NC(=O)c1ccc(S(=O)(=O)N2CC(C)OC(C)C2)cc1 (stereo unspecified)	-0.215% (inactive)	–
Cc1cc2cc(CNC(=O)c3ccc(S(=O)(=O)N4CCCCC4)cc3)ccc2n1C	0.135% (inactive)	–
C[C@H](CO)N1C[C@H](C)[C@@H](CN(C)C)Oc2cc(C#Cc3ccccc3F)ccc2S1(=O)=O	0.115% (inactive)	–
COc1ccc(NC(=O)Nc2cccc3c2O[C@H](CN(C)C(=O)NC2CCCCC2)[C@H](C)CN([C@H](C)CO)C3=O)cc1	0.915% (inactive)	–
CN(Cc1ccsc1)C(=O)CCc1nnc(CCCc2ccccc2)o1	1.14% (inactive)	–
C[C@@H]1CN([C@H](C)CO)C(=O)Cc2cc(NC(=O)Nc3ccc(F)cc3)ccc2O[C@@H]1CN(C)S(=O)(=O)c1cn(C)cn1	–	activation (at 21 µM (top of the series)): -0.103% (inactive)
C[C@H]1CN([C@@H](C)CO)C(=O)c2cc(NS(=O)(=O)c3cn(C)cn3)ccc2O[C@@H]1CN(C)Cc1ccncc1	-0.214% (inactive)	–
CCCCNC(=O)N1c2ccccc2CC1C (stereo unspecified)	0.083% (inactive)	–
CNC[C@H]1Oc2ccc(N(C)C)cc2C(=O)N([C@@H](C)CO)C[C@H]1C	0.27% (inactive)	–
c1ccc(-c2ccccc2OCCOCCN2CCNCC2)cc1	0.084% (inactive)	–
C[C@H](CO)N1C[C@H](C)[C@H](CN(C)Cc2ccc(Oc3ccccc3)cc2)Oc2c(NC(=O)C3CCOCC3)cccc2C1=O	6.04% (inactive)	–
Cc1ccc(CCNC(=O)C2CCC(CNc3c(N4CCC(C)CC4)c(=O)c3=O)CC2)cc1 (stereo unspecified)	-0.022% (inactive)	–
Cc1ccc(C(=O)Nc2cc(C)nn2CCC#N)cc1	0.178% (inactive)	–
C[C@@H]1CN([C@@H](C)CO)C(=O)c2cccc(NC(=O)Nc3ccc4c(c3)OCO4)c2O[C@H]1CN(C)S(=O)(=O)c1ccc(F)cc1	-0.076% (inactive)	–
COc1ccccc1-c1c(C)nn2c(NCCN3CCCC3)cc(C)nc12	0.061% (inactive)	–
